Activity calls are given as the source filed them. No cut-off for these calls is given here.
What was measured:
[1] = test system: NCI-H2228; assay: Antitumor activity against human NCI-H2228 cells xenografted in NOD.CB17-Prkdcscid/J mouse assessed as tumor growth inhibition at 30 mg/kg, po administered once daily for 2 weeks relative to control; format: functional; conditions: NCI-H2228, 336 h, read-out: TGI
[2] = in vivo; conditions: NOD.CB17-Prkdcscid/J, mouse, tumour, po, 1 mg/kg
[3] = in vivo; conditions: NOD.CB17-Prkdcscid/J, mouse, tumour, po, 10 mg/kg
[4] = target: T1, ALK tyrosine kinase receptor (Homo sapiens, UniProt Q9UM73); assay: Inhibition of ALK phosphorylation in human NCI-H2228 cells assessed as phosphorylated ALK level at 100 nmol/L measured after 4 hrs by Western blot analysis relative to control; format: cell-based; set-up: scale not given: the % may be the effect or the level left
T1 sequence (Q9UM73 19-1620 limits assumed): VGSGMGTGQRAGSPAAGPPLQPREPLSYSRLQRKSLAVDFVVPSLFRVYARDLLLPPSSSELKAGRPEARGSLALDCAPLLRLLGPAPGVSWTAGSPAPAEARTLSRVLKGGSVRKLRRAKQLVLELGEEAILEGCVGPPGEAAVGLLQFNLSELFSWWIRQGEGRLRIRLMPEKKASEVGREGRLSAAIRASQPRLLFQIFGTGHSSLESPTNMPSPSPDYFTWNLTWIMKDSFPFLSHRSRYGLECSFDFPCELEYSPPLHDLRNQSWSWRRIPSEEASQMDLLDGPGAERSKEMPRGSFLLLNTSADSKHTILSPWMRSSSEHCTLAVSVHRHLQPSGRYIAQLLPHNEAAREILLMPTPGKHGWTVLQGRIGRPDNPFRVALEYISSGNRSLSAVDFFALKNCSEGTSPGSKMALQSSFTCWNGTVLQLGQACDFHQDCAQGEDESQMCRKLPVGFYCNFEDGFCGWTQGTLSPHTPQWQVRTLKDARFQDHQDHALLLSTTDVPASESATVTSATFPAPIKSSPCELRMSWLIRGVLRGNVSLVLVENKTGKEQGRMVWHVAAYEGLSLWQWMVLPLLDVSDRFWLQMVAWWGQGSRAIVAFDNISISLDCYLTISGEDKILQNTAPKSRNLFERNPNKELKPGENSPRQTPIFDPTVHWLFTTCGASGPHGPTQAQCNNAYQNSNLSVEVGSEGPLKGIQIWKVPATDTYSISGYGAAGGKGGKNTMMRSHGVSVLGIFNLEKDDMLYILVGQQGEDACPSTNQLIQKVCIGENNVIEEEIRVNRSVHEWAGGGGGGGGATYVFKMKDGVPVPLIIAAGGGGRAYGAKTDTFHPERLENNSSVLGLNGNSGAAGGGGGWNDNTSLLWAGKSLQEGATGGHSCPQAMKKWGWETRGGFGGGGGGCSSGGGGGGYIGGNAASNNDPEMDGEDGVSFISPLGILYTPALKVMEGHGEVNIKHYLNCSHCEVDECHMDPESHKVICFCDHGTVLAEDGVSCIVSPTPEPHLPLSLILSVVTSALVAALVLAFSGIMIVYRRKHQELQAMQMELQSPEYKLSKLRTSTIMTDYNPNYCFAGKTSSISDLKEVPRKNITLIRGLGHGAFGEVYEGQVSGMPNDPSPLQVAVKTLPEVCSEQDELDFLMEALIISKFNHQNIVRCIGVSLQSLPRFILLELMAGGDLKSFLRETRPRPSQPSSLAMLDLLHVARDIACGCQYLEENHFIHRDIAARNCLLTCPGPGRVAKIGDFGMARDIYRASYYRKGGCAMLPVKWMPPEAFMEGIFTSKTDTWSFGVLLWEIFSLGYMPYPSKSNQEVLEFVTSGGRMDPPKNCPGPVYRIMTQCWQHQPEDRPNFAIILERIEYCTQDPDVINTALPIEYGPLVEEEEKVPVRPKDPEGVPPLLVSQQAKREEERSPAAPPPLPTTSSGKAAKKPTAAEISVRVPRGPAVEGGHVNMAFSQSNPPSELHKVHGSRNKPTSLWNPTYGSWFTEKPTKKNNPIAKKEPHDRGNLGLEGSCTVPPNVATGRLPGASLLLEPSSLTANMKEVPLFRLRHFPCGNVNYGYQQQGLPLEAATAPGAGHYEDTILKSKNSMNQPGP

[5] = test system: NCI-H2228-Luc; assay: Antitumor activity against human NCI-H2228-Luc cells intrapleurally xenografted in NOD.CB17-Prkdcscid/J mouse assessed as median survival time at 3 mg/kg, po administered once daily for 7 weeks starting from 14 days post-cell inoculation measured up to 90 days (reference value: 39 day); format: functional; conditions: time 90 day
[6] = test system: NCI-H2228; assay: Antitumor activity against human NCI-H2228 cells xenografted in NOD.CB17-Prkdcscid/J mouse assessed as tumor regression at 10 mg/kg, po administered once daily for 2 weeks relative to control; format: functional
[7] = target: T1, ALK tyrosine kinase receptor; assay: Inhibition of ALK in human NCI-H2228 cells assessed as reduction in ERK phosphorylation by measuring phosphorylated ERK level at 100 nmol/L measured after 4 hrs by Western blot analysis relative to control; format: cell-based; set-up: scale not given: the % may be the effect or the level left
[8] = target: Proto-oncogene tyrosine-protein kinase ROS (Homo sapiens, UniProt P08922)
[9] = target: Tyrosine-protein kinase receptor UFO (Homo sapiens, UniProt P30530)
Tyrosine-protein kinase receptor UFO, sequence (P30530 whole entry): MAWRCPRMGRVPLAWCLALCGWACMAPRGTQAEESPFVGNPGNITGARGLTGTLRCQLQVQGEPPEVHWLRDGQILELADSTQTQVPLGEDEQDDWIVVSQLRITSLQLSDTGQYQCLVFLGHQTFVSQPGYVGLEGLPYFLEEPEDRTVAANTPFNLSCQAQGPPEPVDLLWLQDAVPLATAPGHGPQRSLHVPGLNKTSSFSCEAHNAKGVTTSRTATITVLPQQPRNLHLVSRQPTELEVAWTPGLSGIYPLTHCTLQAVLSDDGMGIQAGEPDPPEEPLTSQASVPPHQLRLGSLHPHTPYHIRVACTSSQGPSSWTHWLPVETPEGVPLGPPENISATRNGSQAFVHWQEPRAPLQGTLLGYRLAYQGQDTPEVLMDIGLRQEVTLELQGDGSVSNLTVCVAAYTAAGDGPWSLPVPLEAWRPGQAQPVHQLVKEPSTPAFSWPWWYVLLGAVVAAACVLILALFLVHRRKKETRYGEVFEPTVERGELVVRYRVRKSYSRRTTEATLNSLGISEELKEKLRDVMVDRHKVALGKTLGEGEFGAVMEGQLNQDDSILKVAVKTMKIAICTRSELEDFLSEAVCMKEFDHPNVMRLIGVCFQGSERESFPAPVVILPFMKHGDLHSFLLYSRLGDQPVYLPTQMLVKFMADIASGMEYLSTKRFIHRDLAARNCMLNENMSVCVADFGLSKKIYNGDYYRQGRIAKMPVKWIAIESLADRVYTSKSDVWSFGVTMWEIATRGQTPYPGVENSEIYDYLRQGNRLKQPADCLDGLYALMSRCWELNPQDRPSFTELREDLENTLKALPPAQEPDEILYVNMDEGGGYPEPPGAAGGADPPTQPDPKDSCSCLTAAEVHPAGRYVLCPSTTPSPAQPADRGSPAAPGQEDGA

[10] = target: Tyrosine-protein kinase JAK2 (Homo sapiens, UniProt O60674)
Tyrosine-protein kinase JAK2, sequence (O60674 whole entry): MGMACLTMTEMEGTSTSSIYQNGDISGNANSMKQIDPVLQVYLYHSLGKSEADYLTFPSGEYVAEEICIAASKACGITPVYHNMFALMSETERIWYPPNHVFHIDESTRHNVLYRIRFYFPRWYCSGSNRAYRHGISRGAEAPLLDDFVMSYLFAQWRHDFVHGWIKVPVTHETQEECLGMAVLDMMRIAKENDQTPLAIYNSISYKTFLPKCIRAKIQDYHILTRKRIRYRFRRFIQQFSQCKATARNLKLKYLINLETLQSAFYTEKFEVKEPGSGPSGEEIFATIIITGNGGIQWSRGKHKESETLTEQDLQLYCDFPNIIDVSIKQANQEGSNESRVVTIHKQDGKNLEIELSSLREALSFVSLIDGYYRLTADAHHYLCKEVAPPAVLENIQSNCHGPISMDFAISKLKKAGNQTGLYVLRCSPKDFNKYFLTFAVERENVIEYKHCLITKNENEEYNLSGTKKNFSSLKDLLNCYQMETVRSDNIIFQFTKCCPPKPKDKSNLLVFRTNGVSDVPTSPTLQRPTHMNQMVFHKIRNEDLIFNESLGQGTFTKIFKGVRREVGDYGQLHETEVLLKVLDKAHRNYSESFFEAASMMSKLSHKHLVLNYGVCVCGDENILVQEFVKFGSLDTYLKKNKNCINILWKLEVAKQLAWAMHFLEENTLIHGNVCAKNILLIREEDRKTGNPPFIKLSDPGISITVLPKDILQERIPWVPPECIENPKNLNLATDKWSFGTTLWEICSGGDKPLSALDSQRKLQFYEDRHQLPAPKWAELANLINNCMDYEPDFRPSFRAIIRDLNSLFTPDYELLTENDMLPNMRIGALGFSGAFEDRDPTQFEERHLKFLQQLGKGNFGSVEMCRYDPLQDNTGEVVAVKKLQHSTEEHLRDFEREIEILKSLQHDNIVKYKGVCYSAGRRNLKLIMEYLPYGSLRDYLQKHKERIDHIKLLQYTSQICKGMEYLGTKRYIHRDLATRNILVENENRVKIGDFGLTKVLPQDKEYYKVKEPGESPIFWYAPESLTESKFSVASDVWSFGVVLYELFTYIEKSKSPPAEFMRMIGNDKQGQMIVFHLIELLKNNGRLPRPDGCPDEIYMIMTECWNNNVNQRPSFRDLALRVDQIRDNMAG

[11] = test system: NCI-H2228-Luc; assay: Antitumor activity against human NCI-H2228-Luc cells intrahepatically xenografted in NOD.CB17-Prkdcscid/J mouse assessed as reduction in tumor burden by measuring bioluminescence emission at 30 mg/kg, po administered once daily for 3 weeks starting from 14 days post-cell inoculation and measured on day 14 by bioluminescent imaging analysis (reference value: 3.3 x 10^8 photon/sec); format: functional; conditions: time 14 day
[12] = Tmax in human NCI-H2228 cell xenografted NOD.CB17-Prkdcscid/J mouse plasma at 10 mg/kg/day for 5 days by HPLC-MS analysis; format: ADME, organism-based; conditions: route po, time 5 day
[13] = test system: NCI-H2228; assay: Potentiation of pemetrexed-induced antitumor activity against human NCI-H2228 cells xenografted in NOD.CB17-Prkdcscid/J mouse assessed as reduction in tumor volume at 10 mg/kg, po administered once daily for 5 days; format: functional, organism-based; conditions: time 5.0 day
[14] = test system: NCI-H2228; assay: Antitumor activity against human NCI-H2228 cells xenografted in NOD.CB17-Prkdcscid/J mouse assessed as tumor growth inhibition at 3 mg/kg, po administered once daily for 2 weeks relative to control; format: functional; conditions: NCI-H2228, 336 h, read-out: TGI
[15] = target: ALK tyrosine kinase receptor (Homo sapiens, UniProt Q9UM73, F1174L)
ALK tyrosine kinase receptor (Homo sapiens, UniProt Q9UM73, F1174L), sequence (Q9UM73 19-1620 F1174L limits assumed): as the sequence (Q9UM73 19-1620 limits assumed) above, with F1156L counted along it

[16] = test system: NCI-H2228; assay: Potentiation of paclitaxel-induced antitumor activity against human NCI-H2228 cells xenografted in NOD.CB17-Prkdcscid/J mouse assessed as increase in tumor regression at 10 mg/kg, po administered once daily for 5 days; format: functional, organism-based; conditions: time 5.0 day
[17] = target: T1, ALK tyrosine kinase receptor; assay: Inhibition of ALK phosphorylation in human NCI-H2228 cells assessed as phosphorylated ALK level at 1000 nmol/L measured after 4 hrs by Western blot analysis relative to control; format: cell-based; set-up: scale not given: the % may be the effect or the level left
[18] = Toxicity in human NCI-H2228 cell xenografted NOD.CB17-Prkdcscid/J mouse assessed as change in body weight at 100 mg/kg, po administered twice daily for 14 days; format: organism-based; conditions: in vivo, 336 h, time 14 day
[19] = Cmax in human NCI-H2228 cell xenografted NOD.CB17-Prkdcscid/J mouse plasma at 3 mg/kg/day for 5 days by HPLC-MS analysis; format: ADME, organism-based; conditions: route po, time 5 day
[20] = In vivo inhibition of ALK autophosphorylation in human NCI-H2228 cell xenografted NOD.CB17-Prkdcscid/J mouse assessed as phosphorylated ALK level at 10 mg/kg, po administered as single dose measured after 4 hrs by immunoblotting method relative to control; format: functional; set-up: scale not given: the % may be the effect or the level left

COc1cc(N2CCC(N3CCN(C)CC3)CC2)ccc1Nc1ncnc(Nc2ccccc2S(=O)(=O)C(C)C)n1 [ASP-3026]
inhibition in vivo at 30 mg/kg [1]: > 100% | Kp at 120 h [2]: 22 | Kp at 120 h [3]: 20 | Activity [4]: 37% | MST [5]: 56.5 days | Activity [6]: 45% | Activity [7]: 54% | IC50 [8]: 8.9 nM | IC50 [9]: > 100 nM | IC50 [10]: > 1000 nM | Activity [11]: 4.2 10^6No_unit | Tmax [12]: 4 h | Activity [13]: Active | inhibition in vivo at 3 mg/kg [14]: > 100% | IC50 [15]: 10 nM | Activity [16]: Active | Activity [17]: 9% | Activity [18]: Non-Toxic | Cmax [19]: 140 ng/mL | Activity [20]: ~20%
